Experimental data reported in the supplement of paper PMC11451515.

Tests used:
SEM cells [1] = experiment: cell viability relative to DMSO control; higher = less cytotoxic; conditions: 48 h
In short: (§1)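 NOMO1 or SEM (500 cells/well) or P12-Ichikawa (1000 cells/well) leukemia cells were adapted for at least four passages in each medium. They were seeded in 1536-well plates (5 μl) and pin-dosed with library compounds in DMSO over an 11-point threefold series, 47 μM to 0.79 nM. CellTiter-Glo One luminescence was read after 48 h at 37°C. Viability is the per-plate percentage relative to DMSO wells, with cell-free wells as background.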

P12-Ichikawa [2] = experiment: AUC of viability dose-response curve (% viability x log10 dose units); higher = less sensitive; conditions: 48 h
In short: (§2)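 Library compounds in DMSO were applied for 48 h at 37°C at 11 threefold doses (47 μM to 0.79 nM) to medium-adapted leukemia cells in 1536-well plates holding 500 or 1000 cells/well. Luminescence from CellTiter-Glo One was normalised plate by plate against DMSO and cell-free wells. Area under the curve came from trapezoidal integration of a log-logistic fit, after scaling curves that rose above full viability and discarding those that failed quality control. The fit had four parameters and used log10 doses.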

NOMO1 [3] = experiment: as above; conditions: 48 h
In short: as §2

SEM cells [4] = experiment: as above; conditions: 48 h
In short: as §2

NOMO1 [5] = experiment: cell viability relative to DMSO control; higher = less cytotoxic; conditions: HPLM + 10% dialyzed FBS, 48 h
In short: as §1

P12-Ichikawa [6] = experiment: as above; conditions: HPLM + 10% dialyzed FBS, 48 h
In short: as §1

COC1=CC=C2[N](CCCN(C)C)C=C(C2=C1)C/3=C(/C(=O)NC3=O)C4=C[NH]C5=C4C=CC=C5
SEM cells [1], HPLM + 10% dialyzed FBS
Conditions | cell viability [%]
0.000781 µM | 107
0.00234 µM | 123
0.00702 µM | 123
0.0211 µM | 123
0.0632 µM | 122
0.19 µM | 57.2
0.569 µM | 132
1.71 µM | 111
5.12 µM | 88.4
15.4 µM | 67.4
46.1 µM | 8.06

AUC of viability dose-response curve
Conditions | NOMO1 [3] | P12-Ichikawa [2] | SEM cells [4]
HPLM + 10% dialyzed FBS | 471 | 456 | 425
RPMI 5 mM glucose + 10% FBS | 471 | 453 | 365
RPMI 5 mM glucose + 10% dialyzed FBS | 472 | 452 | 387

CCCCCCCCCCCC/1=C(O)/C(=O)/C=C(O)\C1=O
Conditions | AUC of viability dose-response curve | cell viability [%]
NOMO1 [3], HPLM + 10% dialyzed FBS | 326 | –
NOMO1 [3], RPMI 5 mM glucose + 10% FBS | 301 | –
NOMO1 [3], RPMI 5 mM glucose + 10% dialyzed FBS | 326 | –
NOMO1 [5], 0.000781 µM | – | 112
NOMO1 [5], 0.00234 µM | – | 116
NOMO1 [5], 0.00702 µM | – | 142
NOMO1 [5], 0.0211 µM | – | 127
NOMO1 [5], 0.0632 µM | – | 154
NOMO1 [5], 0.19 µM | – | 151
NOMO1 [5], 0.569 µM | – | 51.1
NOMO1 [5], 1.71 µM | – | 39.4
NOMO1 [5], 5.12 µM | – | 40.9
NOMO1 [5], 15.4 µM | – | 35.5
NOMO1 [5], 46.1 µM | – | 28.6
P12-Ichikawa [2], HPLM + 10% dialyzed FBS | 357 | –
P12-Ichikawa [2], RPMI 5 mM glucose + 10% FBS | 357 | –
P12-Ichikawa [2], RPMI 5 mM glucose + 10% dialyzed FBS | 375 | –
SEM cells [4], HPLM + 10% dialyzed FBS | 462 | –
SEM cells [4], RPMI 5 mM glucose + 10% FBS | 454 | –
SEM cells [4], RPMI 5 mM glucose + 10% dialyzed FBS | 457 | –

cell viability [%], SEM cells [1]
Conditions | HPLM + 10% dialyzed FBS | RPMI 5 mM glucose + 10% dialyzed FBS
0.000781 µM | 98.9 | 107
0.00234 µM | 111 | 120
0.00702 µM | 126 | 126
0.0211 µM | 132 | 132
0.0632 µM | 128 | 131
0.19 µM | 138 | 138
0.569 µM | 118 | 134
1.71 µM | 144 | 140
5.12 µM | 130 | 137
15.4 µM | 127 | 146
46.1 µM | 130 | 129

CC/1=C(\CCN2CCC(CC2)C3=NOC4=C3C=CC(=C4)F)C(=O)N/5CCCCC5=N1
Conditions | AUC of viability dose-response curve | cell viability [%]
NOMO1 [3], HPLM + 10% dialyzed FBS | 457 | –
NOMO1 [3], RPMI 5 mM glucose + 10% FBS | 477 | –
NOMO1 [3], RPMI 5 mM glucose + 10% dialyzed FBS | 472 | –
P12-Ichikawa [2], HPLM + 10% dialyzed FBS | 463 | –
P12-Ichikawa [2], RPMI 5 mM glucose + 10% FBS | 457 | –
P12-Ichikawa [2], RPMI 5 mM glucose + 10% dialyzed FBS | 476 | –
P12-Ichikawa [6], 0.000781 µM | – | 125
P12-Ichikawa [6], 0.00234 µM | – | 120
P12-Ichikawa [6], 0.00702 µM | – | 122
P12-Ichikawa [6], 0.0211 µM | – | 118
P12-Ichikawa [6], 0.0632 µM | – | 130
P12-Ichikawa [6], 0.19 µM | – | 124
P12-Ichikawa [6], 0.569 µM | – | 127
P12-Ichikawa [6], 1.71 µM | – | 116
P12-Ichikawa [6], 5.12 µM | – | 126
P12-Ichikawa [6], 15.4 µM | – | 133
P12-Ichikawa [6], 46.1 µM | – | 127
SEM cells [4], HPLM + 10% dialyzed FBS | 475 | –
SEM cells [4], RPMI 5 mM glucose + 10% FBS | 473 | –
SEM cells [4], RPMI 5 mM glucose + 10% dialyzed FBS | 468 | –

SEM cells [1], HPLM + 10% dialyzed FBS
Conditions | cell viability [%]
0.000781 µM | 102
0.00234 µM | 91.1
0.00702 µM | 106
0.0211 µM | 103
0.0632 µM | 122
0.19 µM | 124
0.569 µM | 72.9
1.71 µM | 45.9
5.12 µM | 112
15.4 µM | 115
46.1 µM | 110

COC(=O)N[C@H](C(=O)N1CCC[C@H]1c1ncc(-c2ccc(-c3ccc(-c4cnc([C@@H]5CCCN5C(=O)[C@@H](NC(=O)OC)C(C)C)[nH]4)cc3)cc2)[nH]1)C(C)C
SEM cells [1], HPLM + 10% dialyzed FBS
Conditions | cell viability [%]
0.000781 µM | 90.4
0.00234 µM | 116
0.00702 µM | 132
0.0211 µM | 125
0.0632 µM | 129
0.19 µM | 126
0.569 µM | 117
1.71 µM | 131
5.12 µM | 133
15.4 µM | 126
46.1 µM | 98.3

AUC of viability dose-response curve
Conditions | NOMO1 [3] | P12-Ichikawa [2] | SEM cells [4]
HPLM + 10% dialyzed FBS | 437 | 473 | 468
RPMI 5 mM glucose + 10% FBS | 458 | 474 | 468
RPMI 5 mM glucose + 10% dialyzed FBS | 470 | 473 | 460
